# Values quoted from earlier work, collected in patent US20240366648A1, “NAD-AUGMENTATION THERAPY FOR PARKINSON'S DISEASE” (Vestlandets Innovasjonsselskap AS (VIS), priority 2021, published 2024).
# B1: cinpanemab: a-synuclein antibody drug (antibody, chains of the INN, looked up, V domains shown)
# VH: EVQLVESGGGLVEPGGSLRLSCAVSGFDFEKAWMSWVRQAPGQGLQWVARIKSTADGGTTSYAAPVEGRFIISRDDSRNMLYLQMNSLKTEDTAVYYCTSAHWGQGTLVTVSS
# VL: SYELTQPPSVSVSPGQTARITCSGEALPMQFAHWYQQRPGKAPVIVVYKDSERPSGVPERFSGSSSGTTATLTITGVQAEDEADYYCQSPDSTNTYEVFGGGTKLTVL
# Columns and labels:
# [1] = tested on: PD patients; conditions: cited from earlier work
# [2] = biological target: T1, a-synuclein (Homo sapiens, UniProt P37840); conditions: in vivo; cited from earlier work
# T1 construct: host or cells: PD patients in a clinical trial (endogenous protein)
Molecule,decrease of motor decline compared to tocopherol [1],clinical trial outcome in PD [2]
"C#CCN(C)[C@H](C)Cc1ccccc1 [L-Deprenyl, selegiline]",50%,–
B1,–,did not achieve proof-of-concept and missed its primary and secondary endpoints
